This passage reports tumor regression and residual disease results from patent US10246515B2, “Methods of treating hedgehog-related diseases with an anti-LGR5 antibody” (Genentech, Inc., priority 2013, dated 2019).

The subject of test [1] is Superficial Basal Cell Carcinoma (BCC). The experiment in a line: DT cell ablation in Superficial Basal Cell Carcinoma (BCC), K14CreER/+; p53loxP/loxP; PtchloxP/loxP; LGR5DTReGFP/+ mice; H&E and immunofluorescent staining. It counts as in vivo. Conditions: 75 mg/kg GDC-0449 po BID for 38 days with Diphtheria Toxin 50 ug/kg every other day for the final 8 days, Lgr5DTR.EGFP mice (FIG. 4 A-B). The method, then: K14^CreER/+; p53^loxP/loxP; Ptch^loxP/loxP; LGR5^DTReGFP/+ mice were generated by breeding p53^loxP/loxPPtch^loxP/loxP; LGR5^DTReGFP/+ mice with p53^loxP/loxP; Ptch^loxP/+; K14^CreER/−. Animals showing telltale signs of Superficial BCC disease such as loss of fur, scruffy coat, thickening of the ears or tail skin were put on study. Animals were typically placed on study at 7 weeks of age. K14^CreER/+; p53^loxP/loxP; Ptch^loxP/loxP; LGR5^DTReGFP/+ mice were treated with the regimes as follows. To test the effects of DT treatments on residual superficial BCC, mice were treated Vismodegib (GDC-0449) po bid at 75 mg/kg for 38 days with concomitant with Diphtheria Toxin (DT) at 50 ug/kg every other day for the final 8 days starting at […]. Control mice were treated with Vismodegib (GDC-0449) po bid at 75 mg/kg for 38 days concomitant with 200 uL IP saline for the final 8 days of treatment. In addition, animals showing signs of disease (listed above) were treated with saline or DT alone at 50 ug/kg every other day for 5 days to test the effect of single DT treatments.
Harvested skin from treated animals was processed for Hematoxylin and Eosin (H&E) staining using established protocols. Alternatively, backskin from treated animals was fixed over night in 4% paraformaldehyde/PBS solution, washed, incubated in 30% sucrose/PBS solution overnight, and embedded in frozen OCT. […]

The next test concerns basal cell carcinoma. The experiment in a line: Basal cell carcinoma in K14-CreER; Ptch1fl/fl; p53fl/fl mice treated with GDC-0449. It counts as in vivo. The method, then: Harvested skin from treated animals was processed for Hematoxylin and Eosin (H&E) staining using established protocols. Alternatively, backskin from treated animals was fixed over night in 4% paraformaldehyde/PBS solution, washed, incubated in 30% sucrose/PBS solution overnight, and embedded in frozen OCT. Sections were then cut at 8 um from the frozen blocks and stained for the apoptosis marker cleaved caspase 3 (1:1000), GFP (1:1000), or Keratin 5 (1:1000). Sections were counterstained with DAPI.

For `CS(=O)(=O)c1ccc(C(=O)Nc2ccc(Cl)c(-c3ccccn3)c2)c(Cl)c1` [GDC-0449, 2-chloro-N-[4-chloro-3-(pyridin-2-yl)phenyl]-4-(methylsulfonyl)benzamide], the tumor regression result in test [1] is “tumor regression”; with basal cell carcinoma (K14-CreER, Ptch1fl/fl, p53fl/fl mice, compared to untreated control mice (FIG. 2)) it was “extensive tumor regression”. Besides, the residual disease entry with basal cell carcinoma (after 75 mg/kg GDC-0449 po BID for 56 days (FIG. 2 C-D)) was “still observed”.
